Values quoted from earlier work in PMC9762682, “Tocotrienols: Exciting Biological and Pharmacological Properties of Tocotrienols and Naturally Occurring Compounds, Part II” (Annals of clinical case reports, 2022).
Read-outs that look alike come from different tables or passages of the source. Marks after values point to notes of the source that are not given here.

Columns and labels:
[1] = parameters: method as in ref 14 = [14]; PMID 27493840; doi:10.4172/2155-9880.1000434; 14. Qureshi AA , Khan DA , Saleem S , Silswal N , Trias AM , Tan B , Pharmacokinetics and bioavailability of Annatto δ-tocotrienol in healthy fed subjects . J Clin Exp Cardiol . 2015; 6 : 11 . 10.417; details: for time of appearance in the plasma: after δ-tocotrienol administration to well-fed subjects; for Elimination of Half-life time (t1/2) / Elimination rate constant (ke) / Plasma Peak Concentration (Cmax) / Time to achieve plasma peak (Tmax): healthy fed subjects
[2] = parameters: method as in ref 16 = [16]; PMID 27493840; doi:10.4172/2155-9880.1000434; 16. Qureshi AA , Khan DA , Silswal N , Saleem S , Qureshi N . Evaluation of pharmacokinetics and bioavailability of higher doses of δ-tocotrienol in healthy fed humans . J Clin Exp Cardiol . 2016; 7
[3] = plasma tocol after single 125 mg δ-tocotrienol dose
[4] = plasma tocol after single 250 mg δ-tocotrienol dose
[5] = plasma tocol after single 500 mg δ-tocotrienol dose
[6] = 0 Hr., single dose 750 mg δ-tocotrienol
[7] = 0 Hr., single dose 1000 mg δ-tocotrienol
[8] = 1 hr., single dose 750 mg δ-tocotrienol
[9] = 1 hr., single dose 1000 mg δ-tocotrienol
[10] = 2 hr., single dose 750 mg δ-tocotrienol
[11] = 2 hr., single dose 1000 mg δ-tocotrienol
[12] = 4 hr., single dose 750 mg δ-tocotrienol
[13] = 4 hr., single dose 1000 mg δ-tocotrienol
[14] = 6 hr., single dose 750 mg δ-tocotrienol
[15] = 6 hr., single dose 1000 mg δ-tocotrienol
[16] = 8 hr., single dose 750 mg δ-tocotrienol
[17] = 8 hr., single dose 1000 mg δ-tocotrienol
[18] = single dose 750 mg δ-tocotrienol
[19] = single dose 1000 mg δ-tocotrienol
[20] = plasma tocol after single dose 750 mg δ-tocotrienol
[21] = plasma tocol after single dose 1000 mg δ-tocotrienol

Row | SMILES | time of appearance in the plasma [1] [h] | Elimination of Half-life time (t1/2) [1, 3] | Elimination rate constant (ke) [1, 3] | Plasma Peak Concentration (Cmax) [1, 3] | Time to achieve plasma peak (Tmax) [1, 3] [h] | Elimination rate constant (ke) [1, 4] | Elimination of Half-life time (t1/2) [1, 5] | Elimination rate constant (ke) [1, 5] | Plasma Peak Concentration (Cmax) [1, 5] | Time to achieve plasma peak (Tmax) [1, 5] [h] | plasma tocol level [2, 6] [ng/mL] | plasma tocol level [2, 7] [ng/mL] | plasma tocol level [2, 8] [ng/mL] | plasma tocol level [2, 9] [ng/mL] | plasma tocol level [2, 10] [ng/mL] | plasma tocol level [2, 11] [ng/mL] | plasma tocol level [2, 12] [ng/mL] | plasma tocol level [2, 13] [ng/mL] | plasma tocol level [2, 14] [ng/mL] | plasma tocol level [2, 15] [ng/mL] | other results
1 | Cc1cc(O)c(C)c2c1O[C@](C)(CCC[C@H](C)CCC[C@H](C)CCCC(C)C)CC2 [β-Tocopherol] | > 2 | 1.82 ± 0.23 h | 1.247 ± 0.073^a h-1 | 956.09 ± 70.06^a ng/mL | 5.18 ± 1.17 | 0.489 ± 0.063^b h-1 | 3.27 ± 0.61^a h | 0.275 ± 0.023^c h-1 | 1045.09 ± 147.81^a ng/mL | 3.09 ± 0.32 | 542 ± 11 | 639 ± 38 | 525 ± 54 | 763 ± 69 | 599 ± 14 | 1025 ± 58 | 704 ± 29 | 1525 ± 32 | 621 ± 28 | 717 ± 56 | Elimination of Half-life time (t1/2) [1, 4]: 3.97 ± 0.66^a h; Plasma Peak Concentration (Cmax) [1, 4]: 949.91 ± 126.37^a ng/mL; Time to achieve plasma peak (Tmax) [1, 4]: 3.09 ± 0.30 h; plasma tocol level [2, 16]: 278 ± 16 ng/mL; plasma tocol level [2, 17]: 516 ± 51 ng/mL; Total tocols (sum of 0-8 h) [2, 18]: 3269 ng/mL; Total tocols (sum of 0-8 h) [2, 19]: 5185 ng/mL
2 | CC(C)=CCC/C(C)=C/CC/C(C)=C/CC[C@]1(C)CCc2c(C)c(O)cc(C)c2O1 [β-Tocotrienol] | > 2 | 3.92 ± 0.86^a h | 0.542 ± 0.062^a h-1 | 979.00 ± 79.45^a ng/mL | 4.00 | 0.404 ± 0.032^b h-1 | 4.39 ± 0.63^a h | 0.192 ± 0.014^c h-1 | 1279.00 ± 116.44^c ng/mL | 3.00 | 1145 ± 61 | 1220 ± 93 | 1565 ± 62 | 1516 ± 21 | 1568 ± 77 | 1830 ± 91 | 1885 ± 91 | 1937 ± 72 | 1538 ± 22 | 1315 ± 48 | Elimination of Half-life time (t1/2) [1, 4]: 3.90 ± 0.79^a h; Plasma Peak Concentration (Cmax) [1, 4]: 1083.73 ± 82.26^b ng/mL; plasma tocol level [2, 16]: 137 ± 102 ng/mL; plasma tocol level [2, 17]: 519 ± 20 ng/mL; Area Under the Curve-t0 - t8 (AUC0-8) [2, 20]: 11473.96 ± 316.15^c ng/ml; Area Under the Curve-t0 - ∞ (AUC0-∞) [2, 20]: 11709.23 ± 459.66^c ng/ml; Elimination of Half-life time (t1/2) [2, 20]: 1.02 ± 0.34^c h; Elimination rate constant (ke) [2, 20]: 0.681 ± 0.103^b h-1; Peak Plasma Concentration (Cmax) [2, 20]: 1885.20 ± 90.95^c ng/ml; Time to achieve plasma peak (Tmax) [2, 20]: 4.00 ^a h; Elimination of Half-life time (t1/2) [2, 21]: 2.11 ± 0.03^b h; Elimination rate constant (ke) [2, 21]: 0.327 ± 0.167^a h-1; Peak Plasma Concentration (Cmax) [2, 21]: 1948.13 ± 66.43^c ng/ml; Time to achieve plasma peak (Tmax) [2, 21]: 3.33 ± 1.16^a h; Total tocols (sum of 0-8 h) [2, 18]: 7838 ng/mL; Total tocols (sum of 0-8 h) [2, 19]: 8337 ng/mL
3 | Cc1c(O)cc2c(c1C)O[C@](C)(CCC[C@H](C)CCC[C@H](C)CCCC(C)C)CC2 [γ-Tocopherol] | > 2 | 2.45 ± 0.37^a h | 0.184 ± 0.121^a h-1 | 507.64 ± 24.68^a ng/mL | 5.46 ± 0.93 | 0.146 ± 0.013^b h-1 | 4.99 ± 0.88^b h | 0.126 ± 0.026^a h-1 | 605.64 ± 48.17^b ng/mL | 2.82 ± 0.41 | 319 ± 30 | 330 ± 34 | 404 ± 44 | 412 ± 17 | 433 ± 26 | 457 ± 33 | 547 ± 12 | 589 ± 39 | 273 ± 67 | 241 ± 28 | Elimination of Half-life time (t1/2) [1, 4]: 5.17 ± 1.06^b h; Plasma Peak Concentration (Cmax) [1, 4]: 643.36 ± 37.26^b ng/mL; Time to achieve plasma peak (Tmax) [1, 4]: 3.00 h; plasma tocol level [2, 16]: 212 ± 16 ng/mL; plasma tocol level [2, 17]: 183 ± 14 ng/mL; Total tocols (sum of 0-8 h) [2, 18]: 2188 ng/mL; Total tocols (sum of 0-8 h) ([2]; single dose 750 mg δ-tocotrienol, listed as γ-tocopherol): 5544 ng/mL; Total tocols (sum of 0-8 h) [2, 19]: 2212 ng/mL
4 | CC(C)=CCC/C(C)=C/CC/C(C)=C/CC[C@]1(C)CCc2cc(O)c(C)c(C)c2O1 [γ-Tocotrienol] | > 2 | 3.82 ± 0.99^a h | 0.113 ± 0.026^a h-1 | 281.34 ± 21.22^a ng/mL | 3.00 | 0.133 ± 0.037^a h-1 | 2.25 ± 0.32^c h | 0.097 ± 0.021^b h-1 | 1224.64 ± 61.28^c ng/mL | 3.55 ± 0.52 | 795 ± 19 | 843 ± 13 | 1035 ± 10 | 1065 ± 7 | 1183 ± 16 | 1251 ± 32 | 1352 ± 23 | 1387 ± 10 | 361 ± 74 | 484 ± 17 | Time to achieve plasma peak (Tmax) [1, 4]: 3.00 h; plasma tocol level [2, 16]: 329 ± 17 ng/mL; plasma tocol level [2, 17]: 374 ± 27 ng/mL; Area Under the Curve-t0 - ∞ (AUC0-∞) [2, 20]: 7895.14 ± 73.43^b ng/ml; Elimination of Half-life time (t1/2) [2, 20]: 1.96 ± 0.06^b h; Elimination rate constant (ke) [2, 20]: 0.353 ± 0.125^a h-1; Peak Plasma Concentration (Cmax) [2, 20]: 1352.41 ± 28.14^b ng/ml; Time to achieve plasma peak (Tmax) [2, 20]: 4.00^a h; Area Under the Curve-t0 - ∞ (AUC0-∞) [2, 21]: 8626.41 ± 277.17^b ng/ml; Elimination of Half-life time (t1/2) [2, 21]: 2.12 ± 0.14^b h; Elimination rate constant (ke) [2, 21]: 0.328 ± 0.286^a h-1; Time to achieve plasma peak (Tmax) [2, 21]: 4.00^a h; Total tocols (sum of 0-8 h) [2, 18]: 5055 ng/mL; Total tocols (sum of 0-8 h) [2, 19]: 5404 ng/mL
5 | Cc1cc(O)cc2c1O[C@](C)(CCC[C@H](C)CCC[C@H](C)CCCC(C)C)CC2 [δ-Tocopherol] | > 2 | 3.25 ± 0.79^a h | 0.118 ± 0.032^a h-1 | 341.18 ± 62.19^a ng/mL | 6.00 | 0.076 ± 0.008^b h-1 | 3.58 ± 0.67^a h | 0.183 ± 0.027^c h-1 | 1027.73 ± 71.93^c ng/mL | 3.00 | 894 ± 69 | 888 ± 22 | 949 ± 11 | 986 ± 18 | 1195 ± 69 | 1266 ± 25 | 1348 ± 93 | 1473 ± 71 | 726 ± 51 | 765 ± 44 | Elimination of Half-life time (t1/2) [1, 4]: 5.22 ± 0.62^b h; Plasma Peak Concentration (Cmax) [1, 4]: 756.27 ± 72.70^b ng/mL; Time to achieve plasma peak (Tmax) [1, 4]: 4.18 ± 0.60 h; plasma tocol level [2, 16]: 432 ± 45 ng/mL; plasma tocol level [2, 17]: 500 ± 25 ng/mL; Total tocols (sum of 0-8 h) [2, 18]: 5544 ng/mL; Total tocols (sum of 0-8 h) ([2]; single dose 750 mg δ-tocotrienol, listed as δ-tocopherol): 13117 ng/mL; Total tocols (sum of 0-8 h) [2, 19]: 5878 ng/mL
